{"source": "paper PMC3858179", "about": "(Journal of medicinal chemistry, 2008)", "key": {"E. coli DHFR": {"biological_target": "E. coli DHFR (Escherichia coli, UniProt P0ABQ4)", "sequence (P0ABQ4 whole entry)": "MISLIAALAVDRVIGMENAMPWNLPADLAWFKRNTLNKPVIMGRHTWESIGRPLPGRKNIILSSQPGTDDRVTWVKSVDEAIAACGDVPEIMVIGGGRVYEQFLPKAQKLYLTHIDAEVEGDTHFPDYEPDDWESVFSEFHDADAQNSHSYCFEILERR", "assay": "Inhibition of isolated E. coli DHFR", "format": "biochemical"}, "human DHFR": {"biological_target": "T1, human DHFR (Homo sapiens, UniProt P00374)", "T1 sequence (P00374 1-187)": "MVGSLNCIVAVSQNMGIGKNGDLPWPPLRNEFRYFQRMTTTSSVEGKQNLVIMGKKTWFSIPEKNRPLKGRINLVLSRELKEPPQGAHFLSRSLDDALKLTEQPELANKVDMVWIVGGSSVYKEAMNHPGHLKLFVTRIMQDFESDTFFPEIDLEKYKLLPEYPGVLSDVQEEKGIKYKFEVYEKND", "assay": "Inhibition of isolated human DHFR", "format": "biochemical"}, "E. coli TS": {"biological_target": "E. coli TS (Escherichia coli, UniProt P0A884)", "sequence (P0A884 whole entry)": "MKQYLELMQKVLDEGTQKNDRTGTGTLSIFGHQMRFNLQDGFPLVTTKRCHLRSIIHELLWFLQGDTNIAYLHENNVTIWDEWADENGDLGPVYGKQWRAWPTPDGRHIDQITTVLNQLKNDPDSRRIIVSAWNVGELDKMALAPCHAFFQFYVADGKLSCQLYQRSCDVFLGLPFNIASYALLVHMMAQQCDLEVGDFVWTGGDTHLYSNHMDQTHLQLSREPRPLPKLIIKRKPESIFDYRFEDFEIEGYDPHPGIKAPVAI", "assay": "Inhibition of isolated E. coli TS", "format": "biochemical", "settings": "for % inhibition TS E. coli (number in parenthesis): at the concentration given"}, "T. gondii DHFR [1]": {"biological_target": "T2, T. gondii DHFR (Toxoplasma gondii, UniProt Q07422)", "T2 sequence (Q07422 1-610)": "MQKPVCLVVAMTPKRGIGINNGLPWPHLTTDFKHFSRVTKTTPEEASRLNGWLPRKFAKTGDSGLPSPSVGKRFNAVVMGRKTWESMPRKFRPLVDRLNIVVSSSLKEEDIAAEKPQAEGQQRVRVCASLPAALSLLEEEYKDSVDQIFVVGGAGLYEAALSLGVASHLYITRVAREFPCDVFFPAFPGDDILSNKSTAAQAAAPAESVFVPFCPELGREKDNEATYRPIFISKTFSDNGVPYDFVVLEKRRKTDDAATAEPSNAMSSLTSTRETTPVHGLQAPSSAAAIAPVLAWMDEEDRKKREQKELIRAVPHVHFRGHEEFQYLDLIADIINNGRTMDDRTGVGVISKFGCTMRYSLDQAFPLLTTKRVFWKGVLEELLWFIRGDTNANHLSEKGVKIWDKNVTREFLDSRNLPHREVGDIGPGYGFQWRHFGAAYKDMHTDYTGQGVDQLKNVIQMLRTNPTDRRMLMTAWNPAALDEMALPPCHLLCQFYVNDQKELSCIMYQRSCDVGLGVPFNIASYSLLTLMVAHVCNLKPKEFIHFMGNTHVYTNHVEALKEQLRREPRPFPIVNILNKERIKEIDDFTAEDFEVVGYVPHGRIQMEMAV", "format": "biochemical"}, "T. gondii TS": {"biological_target": "T. gondii TS (Toxoplasma gondii, UniProt Q07422)", "format": "biochemical"}, "SW-620": {"test_system": "SW-620", "assay": "NCI tumor cell growth inhibition, SW-620", "format": "cell-based", "settings": "Homo sapiens, SW-620, read-out: GI50 SW-620"}, "T. gondii DHFR [2]": {"biological_target": "T2, T. gondii DHFR", "format": "biochemical", "settings": "20 compounds jointly assayed, by both protocols (Table 1 and Table 2 conditions)"}, "60 tumor cell lines": {"test_system": "60 tumor cell lines", "assay": "NCI in vitro preclinical antitumor screening, 60 tumor cell lines", "format": "cell-based"}, "human TS": {"biological_target": "human TS (Homo sapiens, UniProt P04818)", "sequence (P04818 whole entry)": "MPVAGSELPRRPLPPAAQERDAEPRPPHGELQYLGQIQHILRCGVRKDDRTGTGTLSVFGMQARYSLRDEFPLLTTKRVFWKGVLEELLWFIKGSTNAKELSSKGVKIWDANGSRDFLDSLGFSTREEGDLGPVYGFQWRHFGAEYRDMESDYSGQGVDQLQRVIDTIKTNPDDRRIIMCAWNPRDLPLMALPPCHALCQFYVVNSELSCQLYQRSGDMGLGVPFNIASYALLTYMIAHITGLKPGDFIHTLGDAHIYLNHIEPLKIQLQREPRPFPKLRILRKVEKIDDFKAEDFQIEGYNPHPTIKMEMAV", "assay": "Inhibition of isolated human TS", "format": "biochemical"}, "HCT 15": {"test_system": "HCT 15", "assay": "NCI tumor cell growth inhibition, HCT 15", "format": "cell-based", "settings": "Homo sapiens, HCT-15, read-out: GI50 HCT 15"}, "[3]": {"test_system": "human CCRF-CEM leukemia cells", "settings": "read-out: EC50 growth of human CCRF-CEM leukemia cells in culture; cited from earlier work"}}, "note": "pEC50, pIC50: −log10 of the molar value. Read-outs that look alike come from different tables or passages of the source."}
{"smiles": "CCCc1c(Sc2ccc(C(=O)N[C@@H](CCC(=O)O)C(=O)O)cc2)[nH]c2nc(N)nc(N)c12", "note": "[Compound 3, N-[4-[(2,4-Diamino-5-propyl-7H-pyrrolo[2,3-d]pyrimidin-6-yl)sulfanyl]benzoyl]-L-glutamic Acid]", "values": [{"measurement": "inhibition of E. coli DHFR, in words", "setting": "E. coli DHFR", "value": "good inhibitor"}, {"measurement": "inhibition of hDHFR, in words", "setting": "human DHFR", "value": "good inhibitor"}, {"measurement": "inhibition of E. coli TS, in words", "setting": "E. coli TS", "value": "poor inhibitor"}, {"measurement": "inhibition of T. gondii DHFR, in words", "setting": "T. gondii DHFR [1]", "value": "good inhibitor"}, {"measurement": "inhibition of T. gondii TS, in words", "setting": "T. gondii TS", "value": "moderate inhibition"}, {"measurement": "GI50", "setting": "SW-620", "value": 1210, "unit": "nM"}, {"measurement": "potency rank against T. gondii DHFR, in words", "setting": "T. gondii DHFR [2]", "value": "three most potent compounds"}, {"measurement": "GI50", "setting": "60 tumor cell lines", "value": "< 1000", "unit": "nM"}, {"measurement": "GI50", "setting": "60 tumor cell lines; read-out: GI50 tumor cells in culture", "value": "≤ 100", "unit": "nM"}, {"measurement": "inhibition of hTS, in words", "setting": "human TS", "value": "poor inhibitor"}, {"measurement": "GI50", "setting": "HCT 15", "value": "> 100000", "unit": "nM"}]}
{"smiles": "CCCc1c(Sc2c(Cl)cccc2Cl)[nH]c2nc(N)nc(N)c12", "note": "[Compound 11, 2,4-Diamino-5-propyl-6-(2′,6′-dichlorophenylsulfanyl)-7H-pyrrolo[2,3-d]pyrimidine]", "values": [{"measurement": "pIC50", "setting": "E. coli TS", "value": "< 4.66"}, {"measurement": "% inhibition TS E. coli (number in parenthesis)", "setting": "E. coli TS", "value": 0, "unit": "%"}]}
{"smiles": "CCCc1c(Sc2c(C)cccc2C)[nH]c2nc(N)nc(N)c12", "note": "[Compound 12, 2,4-Diamino-5-propyl-6-(2′,6′-dimethylphenylsulfanyl)-7H-pyrrolo[2,3-d] pyrimidine]", "values": [{"measurement": "pIC50", "setting": "E. coli TS", "value": "< 4.62"}, {"measurement": "% inhibition TS E. coli (number in parenthesis)", "setting": "E. coli TS", "value": 0, "unit": "%"}]}
{"smiles": "CCCc1c(Sc2ccccc2)[nH]c2nc(N)nc(N)c12", "note": "[Compound 13, 2,4-Diamino-5-propyl-6-(phenylsulfanyl)-7H-pyrrolo[2,3-d]py-rimidine]", "values": [{"measurement": "pIC50", "setting": "E. coli TS", "value": "< 4.85"}, {"measurement": "% inhibition TS E. coli (number in parenthesis)", "setting": "E. coli TS", "value": 0, "unit": "%"}]}
{"smiles": "CCCc1c(Sc2ccc(OC)cc2)[nH]c2nc(N)nc(N)c12", "note": "[Compound 14, 2,4-Diamino-5-propyl-6-(4′-methoxyphenylsulfanyl)-7H-pyr-rolo[2,3-d]pyrimidine]", "values": [{"measurement": "pIC50", "setting": "E. coli TS", "value": "< 4.89"}, {"measurement": "% inhibition TS E. coli (number in parenthesis)", "setting": "E. coli TS", "value": 0, "unit": "%"}]}
{"smiles": "CCCc1c(Sc2cc(OC)ccc2OC)[nH]c2nc(N)nc(N)c12", "note": "[Compound 15, 2,4-Diamino-5-propyl-6-(2′,5′-dimethoxyphenylsulfanyl)-7H-pyrrolo[2,3-d]pyrimidine]", "values": [{"measurement": "pIC50", "setting": "E. coli TS", "value": "< 4.92"}, {"measurement": "% inhibition TS E. coli (number in parenthesis)", "setting": "E. coli TS", "value": 0, "unit": "%"}]}
{"smiles": "CCCc1c(Sc2ccc(OC)c(OC)c2)[nH]c2nc(N)nc(N)c12", "note": "[Compound 16, 2,4-Diamino-5-propyl-6-(3′,4′-dimethoxyphenylsulfanyl)-7H-pyrrolo[2,3-d]pyrimidine]", "values": [{"measurement": "pIC50", "setting": "E. coli TS", "value": "< 4.96"}, {"measurement": "% inhibition TS E. coli (number in parenthesis)", "setting": "E. coli TS", "value": 0, "unit": "%"}]}
{"smiles": "CCCc1c(Sc2cccc3ccccc23)[nH]c2nc(N)nc(N)c12", "note": "[Compound 17, 2,4-Diamino-5-propyl-6-(1′-napthylsulfanyl)-7H-pyrrolo[2,3-d]pyrimidine]", "values": [{"measurement": "pIC50", "setting": "E. coli TS", "value": "< 4.92"}, {"measurement": "% inhibition TS E. coli (number in parenthesis)", "setting": "E. coli TS", "value": 0, "unit": "%"}]}
{"smiles": "CCCc1c(Sc2ccc3ccccc3c2)[nH]c2nc(N)nc(N)c12", "note": "[Compound 18, 2,4-Diamino-5-propyl-6-(2′-napthylsulfanyl)-7H-pyrrolo[2,3-d]pyrimidine]", "values": [{"measurement": "pIC50", "setting": "E. coli TS", "value": "< 4.92"}, {"measurement": "% inhibition TS E. coli (number in parenthesis)", "setting": "E. coli TS", "value": 0, "unit": "%"}]}
{"smiles": "CC(C)c1c(Sc2c(Cl)cccc2Cl)[nH]c2nc(N)nc(N)c12", "note": "[Compound 19, 2,4-Diamino-5-isopropyl-6-(2′,6′-dichlorophenylsulfanyl)-7H-pyrrolo[2,3-d]pyrimidine]", "values": [{"measurement": "pIC50", "setting": "E. coli TS", "value": "< 5.66"}, {"measurement": "% inhibition TS E. coli (number in parenthesis)", "setting": "E. coli TS", "value": 0, "unit": "%"}]}
{"smiles": "Cc1cccc(C)c1Sc1[nH]c2nc(N)nc(N)c2c1C(C)C", "note": "[Compound 20, 2,4-Diamino-5-isopropyl-6-(2′,6′-dimethylphenylsulfanyl)-7H-pyrrolo[2,3-d] pyrimidine]", "values": [{"measurement": "pIC50", "setting": "E. coli TS", "value": "< 4.89"}, {"measurement": "% inhibition TS E. coli (number in parenthesis)", "setting": "E. coli TS", "value": 0, "unit": "%"}]}
{"smiles": "CC(C)c1c(Sc2ccccc2)[nH]c2nc(N)nc(N)c12", "note": "[Compound 21, 2,4-Diamino-5-isopropyl-6-(phenylsulfanyl)-7H-pyrrolo[2,3-d]pyrimidine]", "values": [{"measurement": "pIC50", "setting": "E. coli TS", "value": "< 5.57"}, {"measurement": "% inhibition TS E. coli (number in parenthesis)", "setting": "E. coli TS", "value": 0, "unit": "%"}]}
{"smiles": "COc1ccc(Sc2[nH]c3nc(N)nc(N)c3c2C(C)C)cc1", "note": "[Compound 22, 2,4-Diamino-5-isopropyl-6-(4′-methoxyphenylsulfanyl)-7H-pyrrolo[2,3-d]pyrimidine]", "values": [{"measurement": "pIC50", "setting": "E. coli TS", "value": "< 5.60"}, {"measurement": "% inhibition TS E. coli (number in parenthesis)", "setting": "E. coli TS", "value": 0, "unit": "%"}]}
{"smiles": "COc1ccc(OC)c(Sc2[nH]c3nc(N)nc(N)c3c2C(C)C)c1", "note": "[Compound 23, 2,4-Diamino-5-isopropyl-6-(2′,5′-dimethoxyphenylsulfanyl)-7H-pyrrolo[2,3-d]pyrimidine]", "values": [{"measurement": "pIC50", "setting": "E. coli TS", "value": "< 5.64"}, {"measurement": "% inhibition TS E. coli (number in parenthesis)", "setting": "E. coli TS", "value": 0, "unit": "%"}, {"measurement": "potency rank against T. gondii DHFR, in words", "setting": "T. gondii DHFR [2]", "value": "among the six least potent compounds"}]}
{"smiles": "COc1ccc(Sc2[nH]c3nc(N)nc(N)c3c2C(C)C)cc1OC", "note": "[Compound 24, 2,4-Diamino-5-isopropyl-6-(3′,4′-dimethoxyphenylsulfanyl)-7H-pyrrolo[2,3-d]pyrimidine]", "values": [{"measurement": "pIC50", "setting": "E. coli TS", "value": "< 5.64"}, {"measurement": "% inhibition TS E. coli (number in parenthesis)", "setting": "E. coli TS", "value": 0, "unit": "%"}, {"measurement": "potency rank against T. gondii DHFR, in words", "setting": "T. gondii DHFR [2]", "value": "among the six least potent compounds"}]}
{"smiles": "CC(C)c1c(Sc2cccc3ccccc23)[nH]c2nc(N)nc(N)c12", "note": "[Compound 25, 2,4-Diamino-5-isopropyl-6-(1′-napthylsulfanyl)-7H-pyrrolo[2,3-d]pyrimidine]", "values": [{"measurement": "pIC50", "setting": "E. coli TS", "value": "< 4.92"}, {"measurement": "% inhibition TS E. coli (number in parenthesis)", "setting": "E. coli TS", "value": 0, "unit": "%"}]}
{"smiles": "CC(C)c1c(Sc2ccc3ccccc3c2)[nH]c2nc(N)nc(N)c12", "note": "[Compound 26, 2,4-Diamino-5-isopropyl-6-(2′-napthylsulfanyl)-7H-pyrrolo[2,3-d]pyrimidine]", "values": [{"measurement": "pIC50", "setting": "E. coli TS", "value": "< 5.62"}, {"measurement": "% inhibition TS E. coli (number in parenthesis)", "setting": "E. coli TS", "value": 0, "unit": "%"}]}
{"smiles": "CC(C)c1c(Sc2ccc(Cl)c(Cl)c2)[nH]c2nc(N)nc(N)c12", "note": "[Compound 27, 2,4-Diamino-5-isopropyl-6-(3′,4′-dichlorophenylsulfanyl)-7H-pyrrolo[2,3-d]pyrimidine]", "values": [{"measurement": "pIC50", "setting": "E. coli TS", "value": "< 5.64"}, {"measurement": "% inhibition TS E. coli (number in parenthesis)", "setting": "E. coli TS", "value": 0, "unit": "%"}, {"measurement": "potency rank against T. gondii DHFR, in words", "setting": "T. gondii DHFR [2]", "value": "among the six least potent compounds"}]}
{"smiles": "CN(Cc1cnc2nc(N)nc(N)c2n1)c1ccc(C(=O)N[C@@H](CCC(=O)O)C(=O)O)cc1", "note": "[MTX, methotrexate, reference compound]", "values": [{"measurement": "potency rank against T. gondii DHFR, in words", "setting": "T. gondii DHFR [2]", "value": "three most potent compounds"}, {"measurement": "pEC50", "setting": "[3]", "value": 7.90}]}
